Activity calls are given as the source filed them. No cut-off for these calls is given here. Where a SMILES comes first, the peptide text is derived from it.

Experiment [1] deals with Escherichia coli. The experiment in a line: Inhibition of Escherichia coli DNA gyrase supercoiling activity using relaxed pBR322 DNA at 20 umol/L after 1 hr by gel electrophoresis assay.
For experiment [2], the target named is DNA topoisomerase 2-alpha (Homo sapiens) (UniProt P11388). The experiment in a line: Inhibition of human topoisomerase 2-mediated DNA cleavage assessed as relaxation of supercoiled pBR322 after 1 hr by gel electrophoresis assay.
Sequence of DNA topoisomerase 2-alpha (Homo sapiens) (P11388 whole entry): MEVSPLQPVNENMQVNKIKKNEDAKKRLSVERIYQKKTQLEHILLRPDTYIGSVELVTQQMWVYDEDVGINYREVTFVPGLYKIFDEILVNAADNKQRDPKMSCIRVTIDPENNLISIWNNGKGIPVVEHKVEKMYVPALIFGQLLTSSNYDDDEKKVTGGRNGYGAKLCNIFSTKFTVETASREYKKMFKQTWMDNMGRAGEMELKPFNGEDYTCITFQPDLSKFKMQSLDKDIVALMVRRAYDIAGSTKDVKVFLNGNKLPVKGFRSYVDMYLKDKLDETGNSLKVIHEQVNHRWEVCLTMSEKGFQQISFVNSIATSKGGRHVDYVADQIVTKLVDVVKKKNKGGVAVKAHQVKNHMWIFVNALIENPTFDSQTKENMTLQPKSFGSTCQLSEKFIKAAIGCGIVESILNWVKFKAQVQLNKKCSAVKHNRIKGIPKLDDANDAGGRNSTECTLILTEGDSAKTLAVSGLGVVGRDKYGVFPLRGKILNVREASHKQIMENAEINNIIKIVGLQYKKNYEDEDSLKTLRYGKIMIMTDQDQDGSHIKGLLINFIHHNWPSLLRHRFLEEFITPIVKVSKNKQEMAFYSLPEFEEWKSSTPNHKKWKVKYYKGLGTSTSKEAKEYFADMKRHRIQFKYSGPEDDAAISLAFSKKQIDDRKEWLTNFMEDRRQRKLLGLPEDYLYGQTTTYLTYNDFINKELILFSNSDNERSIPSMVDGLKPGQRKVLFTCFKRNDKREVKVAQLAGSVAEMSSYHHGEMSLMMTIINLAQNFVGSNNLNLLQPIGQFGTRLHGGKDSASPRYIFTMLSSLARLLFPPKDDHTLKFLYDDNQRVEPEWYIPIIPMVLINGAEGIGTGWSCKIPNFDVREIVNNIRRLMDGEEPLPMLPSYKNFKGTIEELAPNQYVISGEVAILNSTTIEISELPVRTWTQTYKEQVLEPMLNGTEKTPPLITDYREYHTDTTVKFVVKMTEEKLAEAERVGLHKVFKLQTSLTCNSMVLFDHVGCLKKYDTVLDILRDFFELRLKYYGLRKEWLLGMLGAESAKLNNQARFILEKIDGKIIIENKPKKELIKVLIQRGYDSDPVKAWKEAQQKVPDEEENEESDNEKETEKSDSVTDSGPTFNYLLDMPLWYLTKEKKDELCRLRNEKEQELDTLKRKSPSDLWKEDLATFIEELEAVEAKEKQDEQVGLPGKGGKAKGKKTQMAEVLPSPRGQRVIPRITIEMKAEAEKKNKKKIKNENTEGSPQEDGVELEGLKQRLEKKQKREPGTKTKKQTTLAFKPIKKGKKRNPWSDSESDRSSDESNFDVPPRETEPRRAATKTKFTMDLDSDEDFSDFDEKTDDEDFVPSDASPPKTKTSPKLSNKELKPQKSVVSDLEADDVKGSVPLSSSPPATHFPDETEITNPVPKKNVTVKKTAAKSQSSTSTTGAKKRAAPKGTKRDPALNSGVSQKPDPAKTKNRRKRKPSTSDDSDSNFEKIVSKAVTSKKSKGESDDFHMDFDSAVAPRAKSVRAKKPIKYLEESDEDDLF
For experiment [3], the system named is Escherichia coli. The experiment in a line: Inhibition of Escherichia coli topoisomerase-4-mediated DNA cleavage assessed as relaxation of supercoiled pBR322 after 1 hr by gel electrophoresis assay.
The subject of experiment [4] is Escherichia coli. The experiment in a line: Inhibition of Escherichia coli DNA gyrase supercoiling activity using relaxed pBR322 DNA after 1 hr by gel electrophoresis assay.
Experiment [5] relates to Escherichia coli. The experiment in a line: Inhibition of Escherichia coli topoisomerase-4-mediated DNA cleavage assessed as relaxation of supercoiled pBR322 at <75 umol/L after 1 hr by gel electrophoresis assay.

As for H-PALVVAIFHERMDLMARLSER-OH, the inhibition with Escherichia coli [1] worked out at 93%. Moreover, in experiment [2], the inhibition result was “inactive”. The IC100 with Escherichia coli [3] was 10 µmol/L; in the experiment on Escherichia coli [4], more than 20 µmol/L.

Regarding `CC[C@H](C)[C@H](NC(=O)[C@H](CCSC)NC(=O)[C@H](CCCNC(=N)N)NC(=O)[C@@H](N)CC(C)C)C(=O)N[C@@H](Cc1cnc[nH]1)C(=O)N[C@@H](CS)C(=O)N[C@@H](CCC(=O)O)C(=O)N[C@@H](Cc1cnc[nH]1)C(=O)N[C@@H](Cc1cnc[nH]1)C(=O)N[C@@H](Cc1ccc(O)cc1)C(=O)N[C@H](C(=O)N[C@@H](Cc1ccccc1)C(=O)N[C@@H](CS)C(=O)N[C@@H](CC(C)C)C(=O)N1CCC[C@H]1C(=O)N[C@@H](Cc1cnc[nH]1)C(=O)NCC(=O)N[C@@H](CO)C(=O)N[C@@H](C)C(=O)O)C(C)C` (H-LRMIHCEHHYVFCLPHGSA-OH), the IC100 in experiment [2] came out at 50 µmol/L; in the experiment on Escherichia coli [3], 25 µmol/L; in the experiment with Escherichia coli [4], 50 µmol/L.

“H-HYVFCLPHGSAPALVVAIFHERMDLMARLSERLNIES-OH”: the inhibition result in the experiment with Escherichia coli [5] was “inactive”.

Take `CC[C@H](C)[C@H](NC(=O)[C@H](C)NC(=O)[C@@H](NC(=O)[C@@H](NC(=O)[C@H](CC(C)C)NC(=O)[C@H](C)NC(=O)[C@@H]1CCCN1C(=O)[C@H](C)NC(=O)[C@H](CO)NC(=O)CNC(=O)[C@H](Cc1cnc[nH]1)NC(=O)[C@@H]1CCCN1C(=O)[C@H](CC(C)C)NC(=O)[C@H](CS)NC(=O)[C@H](Cc1ccccc1)NC(=O)[C@@H](NC(=O)[C@H](Cc1ccc(O)cc1)NC(=O)[C@H](Cc1cnc[nH]1)NC(=O)[C@H](Cc1cnc[nH]1)NC(=O)[C@H](CCC(=O)O)NC(=O)[C@H](CS)NC(=O)[C@H](Cc1cnc[nH]1)NC(=O)[C@@H](NC(=O)[C@H](CCSC)NC(=O)[C@H](CCCNC(=N)N)NC(=O)[C@@H](N)CC(C)C)[C@@H](C)CC)C(C)C)C(C)C)C(C)C)C(=O)N[C@@H](Cc1ccccc1)C(=O)O` (H-LRMIHCEHHYVFCLPHGSAPALVVAIF-OH): in experiment [2], the inhibition result is “inactive”.

Source of the values: ChEMBL document CHEMBL2040784, “Design and synthesis of peptides from bacterial ParE toxin as inhibitors of topoisomerases” (Eur J Med Chem, 2012).
